In the METLIN SMRT retention time set (Domingo-Almenara et al. 2019):

Assay: gradient 5% acetonitrile 3 min, to 50% in 2 min, to 85% in 15 min, held 3 min, 100 µL/min
Details: column: Zorbax Extend-C18 2.1 x 50 mm; eluents: water / acetonitrile, 0.1% formic acid
How it was run: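 Data were gathered over 3 months by HPLC coupled to a quadrupole time-of-flight mass spectrometer, operated in positive and negative ionization mode. Mixtures of ~100 pure standards ran on a Zorbax Extend-C18 column (2.1 × 50 mm, 1.8 μm) at 100 μL/min, with water and acetonitrile each containing 0.1% formic acid and dead and dwell volumes of 40 μL and 900 μL. Retention time was read from adduct peaks picked by computer and checked manually.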

## COC(=O)c1c(C)[nH]c(C(=O)N2CCC(CC(=O)NCCN3CCCCCC3)CC2)c1C
  RP-LC retention time: 594 s

## CCOc1ccccc1CNC(=O)C1CCCN(c2nnc3ccc(Cl)cn23)C1 (centres undefined)
  RP-LC retention time: 826 s

## CC1=C(c2ccccc2)S(=O)(=O)N=C1N1CCCN(C(=O)C2CCCO2)CC1 (centres undefined)
  RP-LC retention time: 702 s

## Cc1ccc(-c2nnc(-c3cccc(S(=O)(=O)N4CCCC4)c3)o2)cc1
  RP-LC retention time: 1010 s

## COc1ccccc1N1CCN(c2cc(SCC(=O)Nc3ccccc3F)ncn2)CC1
  RP-LC retention time: 1100 s

## O=C(C1CC1)N1CCC(c2noc(-c3ccccn3)n2)C1 (centres undefined)
  RP-LC retention time: 636 s

## Cc1cccc(N2C(=O)CN(Cc3ccccc3)[C@H]3CS(=O)(=O)C[C@H]32)c1
  RP-LC retention time: 859 s

## COc1ccc(CN2CC3(CCN(S(=O)(=O)c4cc(C)ccc4C)CC3)C2=O)cc1
  RP-LC retention time: 932 s

## Cc1ccc(S(=O)(=O)N2CCC3(CC2)CCC(O)(CN2CCCC2)CC3)c(C)c1
  RP-LC retention time: 602 s

## Cc1nn(CC(=O)NCCN(C)Cc2ccccc2)c(=O)c2noc(C)c12
  RP-LC retention time: 595 s

## CCOc1ccccc1-c1noc(CN2N=NC3C(=O)N(c4cc(OC)cc(OC)c4)C(=O)C32)n1 (centres undefined)
  RP-LC retention time: 962 s

## O=C(CN1CCN(Cc2nc(-c3ccc(N4CCCCC4)nc3)no2)CC1)N1CCCC1
  RP-LC retention time: 587 s

## COc1ccc(-c2ccnn2-c2ccc(SCc3ccc(F)cc3)nn2)cc1
  RP-LC retention time: 738 s

## CC1Oc2ccc(S(=O)(=O)N3CCC(C(=O)N4CCCc5ccccc54)CC3)cc2NC1=O (centres undefined)
  RP-LC retention time: 891 s

## CC1=C(c2cccc(Cl)c2)S(=O)(=O)N=C1N1CCCN(C(=O)NCC(C)C)CC1
  RP-LC retention time: 814 s

## COc1ccc2nc3oc(C(=O)N4CCN(Cc5ccc6c(c5)OCO6)CC4)cc3cc2c1
  RP-LC retention time: 670 s

## O=C(C1CCCN(c2ncnc3c2nc2n3CCCCC2)C1)N1CCOCC1 (centres undefined)
  RP-LC retention time: 1270 s

## CC(C)N1C(=O)c2cccnc2Sc2cc(NC(=O)c3cccs3)ccc21
  RP-LC retention time: 837 s

## c1cc(-c2noc(-c3cccs3)n2)cc(-c2ccn[nH]2)c1
  RP-LC retention time: 903 s

## CCOC(=O)c1c(S(=O)(=O)N2CCC(C(=O)Nc3cccc(SC)c3)CC2)c(C)n(C)c1C
  RP-LC retention time: 907 s

## Cc1noc(C)c1Cc1ccc(C(=O)NCC23CCC=C2N(C)C(=O)CC3)o1 (centres undefined)
  RP-LC retention time: 727 s

## Cc1ccsc1C(=O)Nc1ccc2c(N3CCCCC3)ncnc2c1
  RP-LC retention time: 686 s

## COc1cc(-c2nnc(-c3cccc(S(=O)(=O)N4CCCCC4)c3)o2)cc(OC)c1OC
  RP-LC retention time: 1010 s

## Cn1nnc2c(SCC(=O)NCc3ccco3)ncnc21
  RP-LC retention time: 631 s

## O=C1CCCCC(CNC(=O)c2cccs2)N1 (centres undefined)
  RP-LC retention time: 616 s

## CCOC(=O)c1nc(NCc2cccc(OC)c2)c2ccccc2n1
  RP-LC retention time: 754 s

## CC(=O)N(Cc1nn(C)c2c1CN(S(=O)(=O)c1cc(F)ccc1F)CC2)c1ccccc1
  RP-LC retention time: 800 s

## O=C(NCc1ccco1)c1cnn2c(-c3ccc(Cl)cc3)ccnc12
  RP-LC retention time: 945 s

## Cc1ccc2c(=O)c(C(=O)Nc3ccc(C)c(C)c3)c[nH]c2n1
  RP-LC retention time: 894 s

## COc1ccc(NC(=O)c2ccc(-c3cncnc3)nc2)cc1Cl
  RP-LC retention time: 735 s

## CN(C)C(=O)c1cccnc1OC1CCN(C(=O)c2cccc(Br)c2)C1 (centres undefined)
  RP-LC retention time: 709 s

## COCc1cc(=O)n(CC(=O)Nc2cccc(Cl)c2)c(N2CCOCC2)n1
  RP-LC retention time: 884 s

## O=C(NC1CCN(c2cc(-c3ccc(Cl)cc3)[nH]n2)C1)c1cccc(F)c1 (centres undefined)
  RP-LC retention time: 721 s

## COc1cc(OC)cc(C(=O)NC2CCN(Cc3c(C)noc3C)C2)c1 (centres undefined)
  RP-LC retention time: 613 s

## COc1nn(C)cc1C(=O)N1CCC(C(=O)NCC2CCCO2)CC1 (centres undefined)
  RP-LC retention time: 553 s

## O=C(CCSc1ccccc1)Nc1cc(-c2cccs2)nn1CCO
  RP-LC retention time: 793 s

## COCCNC(=O)C1CCN(C(=O)c2ncn3c2COC(c2ccc(OC)cc2)C3)CC1 (centres undefined)
  RP-LC retention time: 658 s

## CCC(C(=O)NCCN(C)C)n1c2ccccc2c2cnn(C)c(=O)c21 (centres undefined)
  RP-LC retention time: 618 s

## O=C(NC(CO)C(O)c1ccc([N+](=O)[O-])cc1)C(Cl)Cl (centres undefined)
  RP-LC retention time: 735 s

## CC(C)CNC(=O)CCc1nc2ccccc2n(CC(=O)N2CCCc3ccccc32)c1=O
  RP-LC retention time: 990 s

## Cc1cc(C)cc(-c2nnc(Cc3nc(-c4ccccc4C)no3)o2)c1
  RP-LC retention time: 1200 s

## CCc1noc(NC(C)=O)c1-c1ccc(C)c(S(=O)(=O)N2CCN(c3ccccc3)CC2)c1
  RP-LC retention time: 964 s

## Cc1nc2ccccc2n(CCC(=O)NCCc2c[nH]c3ccc(Cl)cc23)c1=O
  RP-LC retention time: 795 s

## O=C(Nc1ccccc1F)N1CC(Oc2ccc(-c3nc(-c4ccccc4)no3)cc2)C1
  RP-LC retention time: 1130 s

## CC1CCN(S(=O)(=O)c2cc(-c3nnc(C4CCC4)o3)co2)CC1
  RP-LC retention time: 999 s

## CC(C)CCn1c(CN(C)C(=O)c2ccco2)nc2ccccc21
  RP-LC retention time: 718 s

## COc1ccc(NC(=O)Cn2nc3c(Oc4ccccc4C)nccn3c2=O)cc1
  RP-LC retention time: 790 s

## CC(=O)Nc1ccc2c(c1)nc(CN1CCN(C(=O)c3ccco3)CC1)n2C
  RP-LC retention time: 576 s

## COc1ccc(NC(=O)c2c(S(=O)(=O)Nc3ccc(Cl)cc3)n[nH]c2C)cc1OC
  RP-LC retention time: 788 s

## CC(C)n1cnc2cc(CNC(=O)c3ccoc3)ccc21
  RP-LC retention time: 574 s

## Cc1cc(N2CCCCC2C)n2nc(-c3ccccc3)nc2n1 (centres undefined)
  RP-LC retention time: 966 s

## CC1(C)C(=O)N2c3ccccc3C3(CC(N4C(=O)c5ccccc5C4=O)C(=O)O3)C2N1C(=O)OCc1ccccc1 (centres undefined)
  RP-LC retention time: 1170 s

## CC(C)CNC(=O)c1ccc(-c2cccs2)nc1
  RP-LC retention time: 825 s

## O=C(Cn1c(=O)c2cccn2c2ccc(F)cc21)N1CCOCC1
  RP-LC retention time: 686 s

## CCn1cc(-c2ccc(F)cc2)cc1C(=O)N1CCCC1
  RP-LC retention time: 959 s

## O=C(NCc1cccs1)c1nnc(-c2ccc(S(=O)(=O)N3CCOCC3)cc2)o1
  RP-LC retention time: 804 s

## CCn1nccc1C(=O)N1CCCC1c1cccc(F)c1 (centres undefined)
  RP-LC retention time: 812 s

## CC(=O)NCc1ccc(-c2noc(-c3ccc(F)c(Cl)c3)n2)s1
  RP-LC retention time: 955 s

## CC(C)CNC(=O)c1nn(-c2ccc(F)cc2)nc1CO
  RP-LC retention time: 888 s

## O=C(CCn1cnc2ccccc2c1=O)N1CCN(c2ccccn2)CC1
  RP-LC retention time: 578 s

## CC(=O)N[C@@H]1CN(C(=O)Cc2ccccc2Br)C[C@H]1CO
  RP-LC retention time: 610 s

## O=C(Nc1ccc2c(c1)OCO2)N1CCN(c2nc3ccccc3n(Cc3ccccc3)c2=O)CC1
  RP-LC retention time: 1010 s

## COc1cccc(NC(=O)Cn2ccnc2-c2ccnc(N3CCCC3)c2)c1
  RP-LC retention time: 602 s

## COc1ccc(-c2nnc(SCc3cc(=O)n4ccsc4n3)o2)cc1
  RP-LC retention time: 722 s

## COc1ccc(-c2cc3nn(CC(=O)Nc4ccc(Cl)cc4)c(=O)n3c(C)n2)cc1
  RP-LC retention time: 974 s

## O=C(OCn1nnc2ccccc2c1=O)c1ccc(S(=O)(=O)N2CCCCC2)cc1
  RP-LC retention time: 936 s

## CC(C)NCc1ccc(-c2ccccc2Cl)o1
  RP-LC retention time: 673 s

## Cc1cccc2c(=O)n(C3CCN(S(=O)(=O)c4cccc(Cl)c4)CC3)cnc12
  RP-LC retention time: 1020 s

## Cc1nnsc1C(=O)N1CCC(CNC(=O)NC(c2ccccc2)c2ccccc2)CC1
  RP-LC retention time: 759 s

## COc1cc(OC)c(NC(=O)Cn2cc3c(n2)CCC(C)C3)cc1Cl (centres undefined)
  RP-LC retention time: 999 s

## CCOC(=O)c1nc(Nc2cc(F)ccc2F)c2ccccc2n1
  RP-LC retention time: 912 s

## Cc1nnc(-c2cc(NC(=O)c3ccccc3Br)c(C)s2)o1
  RP-LC retention time: 858 s

## Cc1nc(C2CCCN2Cc2ccc(C)s2)n[nH]1 (centres undefined)
  RP-LC retention time: 554 s

## Cc1ccc(NC(=O)Nc2ccc3nncn3c2)cc1
  RP-LC retention time: 700 s

## CCOc1ccccc1-c1noc(Cn2c(=O)n(-c3cccc(OC)c3)c(=O)c3sccc32)n1
  RP-LC retention time: 964 s

## COc1ccc(-c2ccc(=O)[nH]n2)cc1OC
  RP-LC retention time: 582 s

## COc1ccc(-c2c(C)noc2NC(C)=O)cc1S(=O)(=O)Nc1ccc(C#N)cc1
  RP-LC retention time: 710 s

## COCc1nc2cccnc2n1C1CCN(C(=O)Nc2ccccc2C(=O)OC)CC1
  RP-LC retention time: 784 s

## Cc1nn(-c2ccccc2)c(C)c1S(=O)(=O)N1CCC(C(=O)Nc2ccc(Cl)cc2F)CC1
  RP-LC retention time: 1070 s

## Cc1ccc(-c2nnc(Cc3nc(-c4ccc(F)cc4)no3)o2)cc1
  RP-LC retention time: 1050 s

## O=C(NCCC1=CCCCC1)C1CCN(C(=O)c2ncn3c2COC(c2ccccc2)C3)CC1 (centres undefined)
  RP-LC retention time: 820 s

## O=S(=O)(c1ccc(-c2noc(COc3ccc(Cl)cc3)n2)cc1)N1CCOCC1
  RP-LC retention time: 1090 s

## COc1ccc(NC(=O)c2c[nH]c3ncccc23)cc1
  RP-LC retention time: 673 s

## CCN1C(=O)c2cc(S(=O)(=O)Nc3ccc(F)cc3C)ccc2Oc2cccnc21
  RP-LC retention time: 1010 s

## Cc1ccc2c(NCc3ccccc3)c(-c3nc(C4CC4)no3)cnc2n1
  RP-LC retention time: 755 s

## CCOC(=O)C1CCCN(C(=O)c2ccc(SCCN3CCCCC3)nc2)C1 (centres undefined)
  RP-LC retention time: 629 s

## CNC(=O)CCc1nc2ccccc2n(CC(=O)NCc2ccccc2Br)c1=O
  RP-LC retention time: 700 s

## Cc1[nH]c(C(=O)N2CCCC(C(=O)NC(c3cccs3)C(C)C)C2)c(C)c1C(=O)OC(C)C (centres undefined)
  RP-LC retention time: 987 s

## Cc1cc(=O)n(CC(=O)Nc2cccc(C(F)(F)F)c2)c(N2CCN(c3ccccc3)CC2)n1
  RP-LC retention time: 969 s
